This note sets out measurements from patent US20070027178A1, “Substituted tetrahydro-1H-pyrido[4,3-b]indoles as serotonin receptors agonists and antagonists” (Bristol-Myers Squibb Company, priority 2005, published 2007).

As for `Cc1cc(C(F)(F)F)c2[nH]c3c(c2c1)CNCC3.Cl`, the melting point (commonly the temperature of the solid-liquid transition) is 338 to 342 °C.
Regarding `COc1cc(C(F)(F)F)c2[nH]c3c(c2c1)CNCC3` [Example 23, 8-Methoxy-6-(trifluoromethyl)-2,3,4,5-tetrahydro-1H-pyrido [4,3-b]indole], the melting point fell in the range of 140 to 144 °C.
